Source: patent publication US20230149493A1, “COMPOSITIONS AND METHODS FOR TREATING COVID-19 AND SYMPTOMS THEREOF” (YUVA BIOSCIENCES, INC., priority 2021, published 2023)

System: peripheral blood mononuclear cells (PBMCs)
Assay: XF substrate oxidation stress test (Seahorse XFp, oxygen consumption rate)
Type: cell-based, human
Details: for basal respiration after blocking / maximal respiration after blocking: PBMCs of patients with COVID-19, BPTES 3 μM, etomoxir 4 μM, UK5099 2 μM
Method: Blood samples were obtained from the study participants. PBMCs were separated and plated on XFp eight-well polystyrene plates designed for the Seahorse XFp analyzer (Agilent Technologies, Santa Clara, Calif.) within 2 h. The Seahorse XFp analyzer (Agilent Technologies) was used to measure basal, ATP-linked, and maximal oxygen consumption rate (OCR); reserve capacity; and extracellular acidification rate (ECAR).
OCR, a measurement of mitochondrial respiration, and ECAR, which correlates to the number of protons released from the cell with potential contribution from glycolysis and the Krebs cycle, were measured in the presence of specific mitochondrial activators and inhibitors. Oligomycin (ATP synthase blocker) was used to measure ATP turnover and to determine proton leak; the mitochondrial uncoupler carbonyl cyanide 4-[trifluoromethoxy] phenylhydrazone (FCCP) was used to measure maximum respiratory function (maximal OCR).
Reserve capacity was calculated as maximal OCR minus the basal respiration.
For a measurement of basal respiration, three measurements were taken before injecting ATP synthase inhibitor oligomycin at 0.75 μM (final concentration). FCCP was then injected at 0.75 μM. Finally, a mixture of rotenone and antimycin A (1 μM) was injected. Mitochondrial basal respiration, proton leak, reserve capacity, and maximal respiration were measured after correcting for nonmitochondrial respiration.
OCR and ECAR rates were normalized to cell count for PBMCs.

Compound	maximal respiration after blocking the glucose pathway (PBMCs of healthy controls (HC), before blocking=37±25)	basal respiration after blocking the glucose pathway (PBMCs of healthy controls (HC), before blocking=80±33)	basal respiration after blocking	maximal respiration after blocking	basal respiration after blocking the glucose pathway (PBMCs of patients with chest infection, before blocking=200±35)	maximal respiration after blocking the glucose pathway (PBMCs of patients with chest infection, before blocking=589±16)
N#C/C(=C\c1cn(-c2ccccc2)c2ccccc12)C(=O)O [UK5099]	34±5	52±28	128±5	254±24	195±33	558±19
CCOC(=O)[C@@]1(CCCCCCOc2ccc(Cl)cc2)CO1 [etomoxir]			128±2	255±16		
